Where a name gives a salt, the structure may show the parent alone.
Assays:
[1] = test system: gerbil colon, contractions produced by prostaglandins E1, E2, F1α and F2α; assay: PG-inhibitory effect on the isolated gerbil colon; parameters: species or system Gerbils (Meriones unguiculatus)
Description: The PG-inhibitory effect of esters of the present invention on the gerbil colon are determined using the general technique described by Eakins, Miller & Karim (J. Pharm. Exp. Ther. 176:441, 1971). Gerbils (Meriones unguiculatus) of own breed, both sexes, weighing 50-80 g are used. The animal is stunned, colon ascendens immediately removed, and a 2-3 cm piece mounted in a 6 ml bath containing a modified de Jalon solution at 28° C and continuously oxygenated. Contractions of the organ are registered either isotonicaly or isometrically. When testing the inhibitory effect of a compound this is added to the bath 2 min. before the addition of prostaglandin. The antagonist (esters of this invention) is usually dissolved in saline, but occasionally an organic solvent such as ethanol has to be included. Several concentrations of each antagonist are used. In this system prostaglandins E1, E2, F1α and F2α produce suitable contractions of the organ in the concentration range 1-50 ng/ml.
Results from these experiments give an approximation of the PG-inhibitory potency of the compounds. When more precise information about this is desired we use a more elaborate method involving the establishment of several […] dose-response curves in the presence of various concentrations of inhibitor. The method used is essentially the same as that described by Arunlakshana & Schild (Br. J. Pharm. 14:48, 1959). […]

[2] = test system: Slow Reacting Substance (SRS) contractions of isolated guinea-pig ileum; assay: Antagonism to Slow Reacting Substance on the isolated guinea-pig ileum
Description: The antagonism to Slow Reacting Substance (SRS) is determined on the isolated guinea-pig ileum as described by Mathe & Standberg (Acta physiol. scand. 82:460, 1971). Purified SRS is obtained from cat paws perfused with compound 48/80 (Strandberg & Uvnas: Acta physiol. scand. 82.358, 1971). Sodium 4-(3-oxo-3-(2,4,6-trihydroxyphenyl)propyl)phenyl phenyl phosphate was tested in this system in several concentrations.

[3] = test system: anaphylactic bronchoconstriction elicited by antigen (egg albumin), isolated perfused guinea-pig lung; assay: Anaphylactic bronchoconstriction in the isolated perfused lung of sensitized guinea-pigs
From the text: The effects of esters of the present invention on the anaphylactic reaction in guinea-pigs have been investigated using the isolated perfused guinea-pig lung preparation as described by Bhattacharya & Delaunois (Arch. Int. Pharmacodyn. 101:495, 1955). Guinea-pigs weighing about 300 g are sensitized with egg albumin according to Fredholm & Strandberg (1969). After the appropriate sensitization period the lungs are removed and mounted in a moist, thermostated chamber. The trachea and A. pulmonalis are cannulated. The arterial cannula is connected to a perfusion fluid reservoir containing Tyrode solution buffered with 10 % Sorensen phosphate buffer. The tracheal cannula is connected with tubing to a carbogen gas supply delivering a constant amount per time unit. The perfusion pressure is measured in a side arm of the tubing with a "Mercury" transducer connected to an Ultralette UV-recorder. When antigen (egg albumin), 0.1 - 1.0 μg, is injected via the arterial cannula, a broncho-constriction, indicated by an increase in the perfusion pressure, is elicited.

[4] = test system: gerbil colon (ascending colon) in vivo; assay: Smooth muscle stimulatory effect on the gerbil colon in vivo; parameters: species or system mongolian gerbils
Description: The experiments are performed with mongolian gerbils, anesthetized with pentobarbital, 50 mg/kg. The ascending colon is exposed and carefully stretched between silk thread loops and a strain-gauge transducer.
After a stable base-line has been established an eter of this invention, sodium 3,5-dimethylphenyl 4-(3-(2,4,6-trihydroxyphenyl)-3-oxopropyl)phenylphosphate (Leo 1258) is infused i.v.

[5] = test system: bronchial smooth muscle, isolated perfused guinea-pig lung; assay: Effect on bronchial smooth muscle, isolated perfused guinea-pig lung
From the text: The effects of esters of the present invention on bronchial smooth muscle have been investigated using an isolated perfused guinea-pig lung preparation according to Thattacharya & Delaunois (Arch. Int. Pharmacodyn. 101:495, 1955). The lungs from guinea-pigs weighing 300-400 g are removed, and the trachea and A. pulmonalis cannulated. The arterial cannula is connected to a perfusion fluid reservoir containing Tyrode solution buffered with 10 % Sorensen phosphate buffer. The tracheal cannula is connected with tubing to a carbogen gas supply delivering a constant amount per time unit. The perfusion pressure is measured in a side arm of the tubing with a "Mercury" transducer connected to an Ultralette UV-recorder. The compounds are injected via the arterial cannula, close to the entrance of A. pulmonalis in the lung.

[6] = test system: contractions produced by histamine and bradykinin, isolated guinea-pig ileum; assay: Selectivity on the isolated guinea-pig ileum: histamine and bradykinin; details: concentrations as low as 5 μg/ml
[7] = test system: PGE2-stimulated corticosterone production by adrenals; assay: Prostaglandin-stimulated corticosterone production by rat adrenals in vitro; format: cell-based, Sprague-Dawley male rats; details: for Corticosterone production: mean ± standard error
Description: The inhibitory effect of esters of the present invention has been investigated on the prostaglandin-stimulated corticosterone production by adrenals from male rats in vitro. The experiments were performed using adult Sprague-Dawley male rats weighing 200-250 g, which were housed 1 per cage under conditions of controlled lighting and temperature. Animal quarters were not entered during the 18 hours preceding the experiment. The animals were sacrified by decapitation at 10 AM under conditions chosen to minimize disturbance of the animals. The adrenals were decapsulated and quartered and 8 adrenal quarters from different animals were distributed to 10 ml Erlenmeyer flasks containing 0.5 ml 0.9 % saline and 2.0 ml Krebs-Ringer bicarbonate buffer, pH 7.4. The weight of the adrenal tissue in each flask was determined. The flasks were gassed with 95 % O 2 -- 5 CO2 and preincubated at 37° C for 1 hour with continuous shaking. Following preincubation the media were decanted and discarded. One ml of Krebs-Ringer buffer, with or without the additions of prostaglandin E2 (PGE2) sodium 3,5-dimethylphenyl 4-(3-(2,4,6-trihydroxyphenyl)-3-oxopropyl)phenyl phosphate.
(for details see below) was added to the flasks, which were then gassed with 95 % 02 -- 5 % CO2 and kept at 37° C for 1 hour with continuous shaking. Following incubation, corticosterone levels were determined on 0.5 ml aliquots of the medium by the sulphuric acid fluorescence method.
In the first experiment (I) PGE2 in a concentration of 1 μg/ml was added to the incubation medium containing the quartered adrenals.
In the next experiment (II) different amounts of Leo 1258 to the incubation medium.

[8] = test system: ovarian lactic acid production produced by PGE1; assay: Prostaglandin-stimulated glycolysis of the prepubertal ovary in vitro; format: cell-based, prepubertal rats
Description: The action of esters of the present invention on the prostaglandin-stimulated glycolysis of the prepubertal ovary is investigated. The method used has been described in detail by Perklev & Ahren (Life Sciences Part I, 10:1387, 1971). In these experiments ovaries from prepubertal rats are removed and placed in Erlenmeyer flasks containing compounds of this invention dissolved in Krebs bicarbonate buffer. After that the ovaries have been preincubated during 60 min. at 37° C in this medium, they are blotted on filter paper and then washed for 2 min. in plain buffer. The ovaries are then transferred to a new incubation medium containing prostaglandins (PG) dissolved in Krebs bicarbonate buffer and incubated at 37° C for 2 hours with continuous shaking. The ovarian glycolysis is then determined by measuring the concentration of lactic acid in the incubation medium. When polyphloretin phosphate (PPP) is present in the preincubation medium in a concentration of 500 μg/ml, the subsequent ovarian lactic acid production produced by PGE1 is reduced to about 50 % of that obtained with ovaries preincubated in plain buffer.

[9] = test system: PGE1-stimulated ovarian glycolysis; assay: In vivo action on prostaglandin-stimulated glycolysis of the prepubertal ovary (i.p. injection, ovaries then incubated with PGE1); parameters: species or system Prepubertal rats of the Sprague-Dawley strain; details: injected i.p. (500 μg in 1 ml saline) one hour before removal of ovaries; PGE1 0.4 μg/ml, 2 hours
Description: Prepubertal rats, 24-26 days old, of the Sprague-Dawley strain, are injected intraperitoneally (i.p.) with 1 ml saline containing 500 μg sodium 3,5-dimethylphenyl 4-(3-(2,4,6-trihydroxyphenyl)-3-oxo-propyl)phenyl phosphate.
One hour later the animals are sacrified by cervical fracture and the ovaries are removed and trimmed free of extraneous tissue. The ovaries are then transferred to an incubation bath containing prostaglandin E1 (PGE1; 0.4 μg/ml) dissolved in Krebs bicarbonate buffer and incubated at 37° C for 2 hours with continuous shaking. The ovarian glyclysis is then determined by measuring the concentration of lactic acid in the incubation medium. The details of the method have been described previously (Perkley, T. & Ahren, K., Life Sciences Part I, 10:1387, 1971).

SMILES: O=P(O)(Oc1ccccc1)Oc1ccccc1 [sodium salt of diphenyl phosphate, reference compound]
- PG-inhibitory effect on the gerbil colon ([1]; concentrations 10 times as high as that of PPP): without effect
- antagonism to SRS [2]: without effect
- effect on the anaphylactic bronchoconstriction ([3]; concentration 100 μg/ml): completely lacked such an effect
- effect on the gut ([4]; i.v., doses up to 400 mg/kg): no effect at all
- broncho-constricting effect ([5]; dose of 12.8 mg): completely lacked such an effect

SMILES: O=C(CCc1ccc(OP(=O)([O-])Oc2ccccc2)cc1)c1c(O)cc(O)cc1O.[Na+] [sodium 4-(3-oxo-3-(2,4,6-trihydroxyphenyl)propyl)-phenyl phenyl phosphate]
- concentration that inhibits contractions produced by SRS ([2]; concentrations as low as): 5 µg/mL
- manner of the inhibition of SRS contractions ([2]; parallel shift of the dose-response curves, no change in maximum contraction): competitive
- inhibition of contractions produced by histamine and bradykinin [6]: not by histamine and bradykinin

SMILES: Cc1cc(C)cc(OP(=O)(O)Oc2ccc(CCC(=O)c3c(O)cc(O)cc3O)cc2)c1 [Leo 1258, sodium 3,5-dimethylphenyl 4-(3-(2,4,6-trihydroxyphenyl)-3-oxopropyl)phenylphosphate]
- concentration for 50 per cent reduction of the PG-induced contraction, as fraction of that of PPP ([1]; relative to PPP): about one tenth
- effect on the PGE2-stimulated corticosterone production ([7]; 0.25 and 1.0 mg added to the incubation bath): dose-related inhibition
- Corticosterone production ([7]; Exp. II group A, Leo 1258 250 μg/ml without PGE2): 3.9±0.5 μg/100 mgx 1 h
- Corticosterone production ([7]; Exp. II group C, PGE2 1 μg/ml + Leo 1258 250 μg/ml): 6.5±0.5 μg/100 mgx 1 h
- Corticosterone production ([7]; Exp. II group D, PGE2 1 μg/ml + Leo 1258 1 mg/ml): 2.9±0.2 μg/100 mgx 1 h
- activity as a prostaglandin inhibitor relative to PPP [8]: 5-10 times
- IC50 ([8]; Rattus norvegicus, 60 min. preincubation, then 2 hours with PG, read-out: concentration in the preincubation medium giving about 50 % reduction of the lactic acid production produced by PGE1): 50 to 100 µg/mL
- ovarian glycolysis (lactic acid) compared with saline-injected animals [9]: significantly reduced
- effect on the anaphylactic bronchoconstriction ([3]; 4-20 μg/ml incorporated in the Tyrode solution): abolished or markedly reduced
- reaction of the gut ([4]; 1 mg/ml in the buffer solution superfusing the gut): increase in tone
- minimal effective dose ([4]; Meriones unguiculatus, iv, infused i.v., anesthetized gerbils, read-out: dose that causes the gut to respond with a series of contractions): ≥ 40 mg/kg
- dose showing a broncho-constricting effect ([5]; injected via the arterial cannula): ≥ 0.5 mg

SMILES: CCCCC[C@H](O)/C=C/[C@H]1[C@H](O)CC(=O)[C@@H]1C/C=C\CCCC(=O)O [PGE2, prostaglandin E2, reference compound]
- Corticosterone production ([7]; Exp. I, PGE2 1 μg/ml alone, 4 observ.): 7.6±0.4 μg/100 mgx 1 h
- Corticosterone production ([7]; Exp. II group B, PGE2 1 μg/ml alone): 8.4±0.5 μg/100 mgx 1 h
- effect on the corticosterone concentration ([7]; PGE2 1 μg/ml, Exp. I): highly significant increase
